Values quoted from earlier work, collected in patent publication US20230270982A1, “DEVICES FOR REGIO-SPECIFIC RELEASE OF CARRIED DRUG AT ILEOCECAL REGION” (Teva Pharmaceutical Industries Ltd., priority 2020, published 2023).

Columns and labels:
[1] = oral ester prodrug; extensive intestinal esterase degradation
[2] = test system: inflammatory bowel disease in mice; conditions: given topically

Compound: CC(C)OC(=O)OCOP(=O)(CO[C@H](C)Cn1cnc2c(N)ncnc21)OCOC(=O)OC(C)C [Tenofovir disoproxil]
- bioavailability of the prodrug [1]: about 30%

Compound: glatiramer acetate
- treating UC [2]: effective
